Data reported in patent publication US8470769B2, “Method of treatment of bacterial infection by administration of poly-lysine” (priority 2004, dated 2013).

Legend:
[1] = tested on: Trichophyton rubrum (NCPF 335); assay: Fungal growth sensitivity assay (absorbance at 540 nm); type: cell-based
Experimental: (§1) Trichophyton interdigitale (NCPF 117) and Trichophyton rubrum (NCPF 335) strains were obtained from the National Collection of Pathogenic Fungi, Bristol and maintained in culture by transfer at approximately monthly intervals on slopes of Sabuoraud's agar and Potato Dextrose Agar at 30° C. Candida albicans strain 3179 (obtained from the National Collection of Type Cultures [NCTC], Colindale) was maintained in Oxoid Mueller Hinton Broth at 37° C. Streptococcus pyogenes strain 8198, Staphylococcus aureus strain 10642 (methicillin-resistant), and E. coli 0157 strain 12900 were obtained from the NCTC, Colindale and maintained in Oxoid Mueller Hinton Broth at 37° C.
To determine the sensitivity of fungal strains to each of the test peptides, their impact on fungal growth was assessed as follows. Suspensions of T. interdigitale and T. rubrum conidia and hyphal fragments were prepared by adding 10 ml of fresh Nutrient Glucose Broth (NGB) (Oxoid Nutrient broth containing 2% w/v glucose) to a slope culture and agitating with a spatula. The resulting conidial/hyphal fragment suspension was filtered through 2 layers of sterile surgical gauze to remove large hyphal mats and pieces of agar. 20 μl of this suspension (absorbance at 540 nm around 0.1, corresponding to approx 10^6 propagules/ml) was inoculated into each well of sterile, 96 well microtitre plates to which a total volume 80 μl of nutrient medium (NGB) and the appropriate amount of peptide solution had previously been added. Control wells were those in which the final assay volume of 100 μl was made up with NGB medium alone, plus solvent (if applicable and at the same concentration as the peptide samples if so). […]

[2] = tested on: Trichophyton interdigitale (NCPF 117); assay: as above; type: cell-based
Experimental: as §1
To determine the sensitivity of fungal strains to each of the test peptides, their impact on fungal growth was assessed as follows. Suspensions of T. interdigitale and T. rubrum conidia and hyphal fragments were prepared by adding 10 ml of fresh Nutrient Glucose Broth (NGB) (Oxoid Nutrient broth containing 2% w/v glucose) to a slope culture and agitating with a spatula. The resulting conidial/hyphal fragment suspension was filtered through 2 layers of sterile surgical gauze to remove large hyphal mats and pieces of agar. 20 μl of this suspension (absorbance at 540 nm around 0.1, corresponding to approx 10^6 propagules/ml) was inoculated into each well of sterile, 96 well microtitre plates to which a total volume 80 μl of nutrient medium (NGB) and the appropriate amount of peptide solution had previously been added. Control wells were those in which the final assay volume of 100 μl was made up with NGB medium alone, plus solvent (if applicable and at the same concentration as the peptide samples if so). Fungal growth within the plates was monitored by absorbance at 540 nm in a Microtek plate reader after 24 h, 4 day and 7 day incubations at 30° C.

[3] = tested on: Candida albicans strain 3179; assay: Candida albicans survival assay (viable counts); type: cell-based; conditions: for Survival of Candida albicans, antifungal activity compared with poly-L-lysine: 100 μg/ml, 1 mg/ml and 10 mg/ml, 2 hours at 37° C. (FIG. 19)
Experimental: as §1
To determine the sensitivity of fungal strains to each of the test peptides, their impact on Candida survival was assessed as follows. C. albicans cultures were grown for 18-24 h then stored at 4° C. prior to use. Fresh cultures grown overnight were centrifuged at 2000×g for 10 min and washed with fresh Mueller Hinton Broth, adjusting the number of viable cells to between 5×10^6 and 1×10^7/ml. Assay buffer was prepared by adding 100 μl of NGB medium to 6.9 ml of 10 mM sodium phosphate buffer, pH 7.7. 35 μl of assay buffer with or without a range of peptide concentrations was added to a sterile polypropylene screw-capped vial and 15 μl of the Candida albicans inoculum described above was added. The vials were incubated at 37° C. in a water bath for 2 h, and the number of Candida spp. surviving was determined by serial dilution in sterile phosphate buffered saline (PBS) and plating out onto 9 cm Petri dishes containing Oxoid Sabouraud's Agar (20 ml). Counts were made after incubation of these plates at 37° C. for 18-24 h.

[4] = tested on: Candida albicans strain 3179; assay: Candida albicans growth by optical density (absorbance at 540 nm); type: cell-based; conditions: 50 or 100 and 300 or 500 μg/ml peptide; 24 h and 48 h; time and dose-dependent (FIG. 4)
Experimental: as §1
The yeast Candida albicans was cultured, as described previously in the materials and methods section, in growth medium alone (control cultures) or in growth medium containing 50 μg/ml or 100 μg/ml and 300 μg/ml or 500 μg/ml of peptide 1, 2, 3 or 4. Growth of C. albicans was assessed by measuring optical density (absorbance at 540 nm) after 24 h (FIG. 4a) and 48 h (FIG. 4b) in culture. […] In a separate experiment, C. albicans survival was assessed after 18-24 h in cultures grown in medium alone (controls) or those including a range of concentrations of peptide 4 spanning 1 μg/ml to 1000 μg/ml (FIG. 6).

[5] = tested on: E. coli 0157 strain 12900; assay: Bacterial survival assay; type: cell-based, Escherichia coli; conditions: range of concentrations; 3 h of exposure; dose dependent (FIG. 7)
Experimental: (§2) Streptococcus pyogenes strain 8198, Staphylococcus aureus strain 10642 (methicillin-resistant), and E. coli 0157 strain 12900 (all obtained from the NCTC, Colindale) were grown for 18-24 h then stored at 4° C. prior to use. Fresh cultures grown overnight were centrifuged at 2000×g for 10 min and washed with fresh Mueller Hinton Broth. Sensitivity to each of the four peptides was assayed as per C. albicans described above. For E. coli and S. aureus, the starting number of cells for the peptide sensitivity assay was 10^8/ml and the medium used for enumeration was Nutrient Agar (Oxoid). Str. pyogenes grew less well than the other strains on Mueller Hinton agar and so the starting number of cells for these assays was lower than that for the other strains, at 10^6/ml. Str. pyogenes survival was determined using Oxoid Tryptose Soya Agar in place of Nutrient Agar.
(§3) Three clinically relevant bacterial pathogens, E. coli 0157, methicillin-resistant Staphylococcus aureus (MRSA) and Streptococcus pyogenes, were exposed, as described previously in the materials and methods section, to a range of concentrations of peptide 4. After a period of 3 h, samples of each bacterial culture were transferred to appropriate solid phase growth media plates and the numbers of viable colonies in control (growth medium only) and treated (growth medium containing peptide 4) samples assessed after 18-24 h.

[6] = tested on: Staphylococcus aureus strain 10642 (methicillin-resistant); assay: Bacterial survival assay; type: cell-based; conditions: range of concentrations; 3 h of exposure; dose dependent (FIG. 7)
Experimental: as §2, §3

[7] = tested on: Streptococcus pyogenes strain 8198; assay: Bacterial survival assay; type: cell-based; conditions: range of concentrations; 3 h of exposure; dose dependent (FIG. 7)
Experimental: as §2, §3

[8] = 100 μg/ml, no acetic acid, 96 hours at 30° C. (FIG. 15)
[9] = 3 concentrations, no acetic acid, 96 hours at 30° C. (FIG. 14)
[10] = no acetic acid, 96 hours at 30° C. (FIG. 13)
[11] = 3 concentrations of Peptide 4, no acetic acid, 96 hours at 30° C. (FIG. 9)

Poly-L-arginine-HCl 5,000-15,000 (28-86aa) [pR28-86]
Growth of T. rubrum (OD) [1, 8]: loss of activity | Growth of T. rubrum ([1]; 1 mg/ml, no acetic acid, 96 hours at 30° C. (FIG. 13)): totally inhibiting growth | Concentration down to which active against T. rubrum [1, 9]: 0.55 mg/mL | Inhibitory impact against T. rubrum compared with poly-L-Lysine ([1]; equivalent doses, no acetic acid, 96 hours at 30° C. (FIG. 13)): more active | Growth of T. rubrum [1, 10]: inhibited the growth | Growth of T. interdigitale (OD) [2, 8]: loss of activity | Concentration down to which active against T. interdigitale [2, 9]: 0.55 mg/mL | Survival of Candida albicans, antifungal activity compared with poly-L-lysine [3]: increased antifungal activity

L-Arginine trimer [RRR]
Activity against T. rubrum compared among the trimers ([1]; 2 mg/ml of each trimer, 96 hours at 30° C. (FIG. 16)): most active peptide | Growth of T. rubrum (OD, percentage of the growth in the untreated culture) ([1]; 2 mg/ml of trimer, 96 hours at 30° C. (FIG. 16)): significant reduction in growth

Peptide 4: peptide of FIG. 1 (SEQ ID NO: 10); highly cationic peptide comprising lysine and arginine residues (KRKRKRKCRKRKRRCRKRKCKRKRKRKRKCRKRKRKCCRRKK)
Growth of C. albicans (optical density, absorbance at 540 nm) [4]: significantly inhibited C. albicans growth | Growth of T. rubrum (optical density, absorbance at 540 nm) ([1]; 50 μg/ml peptide, day 4 and 7, 0.5% acetic acid as solvent, compared to un-treated control (FIG. 3)): significantly inhibited | Growth of T. rubrum (OD) ([1]; 1 mg/ml peptide 4 alone, 3 days in culture (FIG. 8)): inhibited T. rubrum growth | Growth of T. rubrum (OD) [1, 11]: inhibitory effect | Growth of T. interdigitale (optical density, absorbance at 540 nm) ([2]; 50 μg/ml peptide, day 4 and 7, 0.5% acetic acid as solvent, compared to un-treated control (FIG. 2)): significantly inhibited | Growth of T. interdigitale (OD) [2, 11]: inhibitory effect | Growth of T. interdigitale (OD) ([2]; 7 days, no acetic acid solvent (FIG. 10)): significantly inhibit fungal growth | Effect of salt concentrations on antifungal activity towards T. interdigitale ([2]; Peptide 4 1.2 mg/ml, NaCl 100 mM to 500 mM, no acetic acid, 96 h at 30° C. (FIG. 17)): not affected | Peptide concentration at which growth of T. interdigitale was inhibited ([2]; no acetic acid, 96 hours at 30° C. (FIG. 9)): 0.55 mg/mL | Survival of C. albicans (viability counts) ([3]; 1 μg/ml to 1000 μg/ml, after 24 h in culture (FIG. 6)): decreased in a dose-dependent manner | Survival of C. albicans at high salt concentrations ([3]; range of Peptide 4 concentrations, two concentrations of NaCl, 2 h incubation at 37° C. (FIG. 18)): Significant killing activity | Effect of salts on fungicidal activity against C. albicans ([3]; two concentrations of NaCl, 2 h incubation at 37° C. (FIG. 18)): not inhibited by salts | Survival of E. coli 0157 (viable colonies) [5]: significantly inhibited survival | Survival of methicillin-resistant Staphylococcus aureus (MRSA) (viable colonies) [6]: significantly inhibited survival | Survival of Streptococcus pyogenes (viable colonies) [7]: significantly inhibited survival

CC(=O)O [acetic acid]
Growth of T. rubrum (OD) ([1]; 0.01% acetic acid alone, 3 days in culture (FIG. 8)): no significant effect | Growth of T. interdigitale ([2]; 0.5% acetic acid, 96 hours at 30° C. (FIG. 11)): significant effect

Poly-D-lysine-HBr 4,000-15,000Da (27-100aa) [pKd27-100]
Survival of Candida albicans, antifungal activity compared with poly-L-lysine [3]: very similar antifungal activity to the poly-L-lysine

Poly-L-lysine-HCl 15,000-30,000Da (100-200aa) [pK100-200]
Growth of T. rubrum [1, 10]: inhibited the growth | Growth of T. interdigitale ([2]; between 1 mg/ml and 50 μg/ml, no acetic acid, 96 hours at 30° C. (FIG. 12)): inhibited growth at all concentrations tested
